# Laboratory results reported in patent US8912329B2 (priority 2009, dated 2014).
# Legend:
# [1] = tested on: Mycobacterium tuberculosis laboratory strain H37Rv; assay: Growth inhibition / drug susceptibility testing of M. tuberculosis with MGIT 960 system, compounds combined with ethionamide; format: cell-based; set-up: key to growth inhibition of M. tuberculosis H37Rv (R/I/S): R: Resistance, no effect of combinatorial drug application; I: intermediate; S: sensitive
# [2] = 250 mg oral; cited from earlier work
# EthR-VP16 = EthR-VP16 (Mycobacterium bovis, UniProt Q7TVI1); assay: cell-based; set-up: species or system M. bovis; conditions: 48 h, read-out: % EthR activity (w/o = 100%); ± std. dev. of the mean (n = 3)
# EthR-VP16, sequence (Q7TVI1 whole entry, looked up): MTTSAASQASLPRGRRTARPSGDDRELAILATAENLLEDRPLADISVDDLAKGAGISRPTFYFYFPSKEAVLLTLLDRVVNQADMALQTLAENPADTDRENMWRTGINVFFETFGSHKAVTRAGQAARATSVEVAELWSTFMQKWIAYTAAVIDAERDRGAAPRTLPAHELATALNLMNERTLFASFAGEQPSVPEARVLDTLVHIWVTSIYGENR
smiles,measurement,setting,value
"CCc1cc(C(N)=S)ccn1 [Ethionamide, 2-ethylthioiso-nicotinamide, reference compound]",growth inhibition of M. tuberculosis H37Rv (R/I/S),[1]; ethionamide 0.16 μg/ml alone (Example compound 0 μM),R
same,growth inhibition of M. tuberculosis H37Rv (R/I/S),[1]; ethionamide 0.31 μg/ml alone (Example compound 0 μM),R
same,growth inhibition of M. tuberculosis H37Rv (R/I/S),[1]; ethionamide 0.625 μg/ml alone (Example compound 0 μM),R
same,growth inhibition of M. tuberculosis H37Rv (R/I/S),[1]; ethionamide 1.25 μg/ml alone (Example compound 0 μM),R
same,growth inhibition of M. tuberculosis H37Rv (R/I/S),[1]; ethionamide 2.5 μg/ml alone (Example compound 0 μM),I
same,growth inhibition of M. tuberculosis H37Rv (R/I/S),[1]; ethionamide 5 μg/ml alone (Example compound 0 μM),S
same,cmax,[2],2 µg/mL
same,t1/2,[2],2 h
"O=C(COc1ccc(F)cc1)N1CCC(c2ccccc2)C1 (centres unmarked) [Example 15, 2-(4-Fluorophenoxy)-1-(3-phenylpyrrolidin-1-yl)ethan-1-one]",remaining activity at 0.5 µM,EthR-VP16,10.3 ± 1.26%
same,remaining activity at 1.5 µM,EthR-VP16,10.3 ± 0.43%
same,remaining activity at 3 µM,EthR-VP16,7.81 ± 0.95%
same,remaining activity at 6 µM,EthR-VP16,6.01 ± 1.93%
same,remaining activity at 15 µM,EthR-VP16,3.21 ± 1.35%
same,remaining activity at 30 µM,EthR-VP16,0.77 ± 0.32%
same,remaining activity at 60 µM,EthR-VP16,0.86 ± 0.36%
same,remaining activity at 300 µM,EthR-VP16,0.89 ± 0.37%
same,growth inhibition of M. tuberculosis H37Rv (R/I/S),[1]; Example compound 0.5 μM + ethionamide 0.16 μg/ml,R
same,growth inhibition of M. tuberculosis H37Rv (R/I/S),[1]; Example compound 0.5 μM + ethionamide 0.31 μg/ml,R
same,growth inhibition of M. tuberculosis H37Rv (R/I/S),[1]; Example compound 0.5 μM + ethionamide 0.625 μg/ml,I
same,growth inhibition of M. tuberculosis H37Rv (R/I/S),[1]; Example compound 0.5 μM + ethionamide 1.25 μg/ml,S
same,growth inhibition of M. tuberculosis H37Rv (R/I/S),[1]; Example compound 0.5 μM + ethionamide 2.5 μg/ml,S
same,growth inhibition of M. tuberculosis H37Rv (R/I/S),[1]; Example compound 0.5 μM + ethionamide 5 μg/ml,S
same,growth inhibition of M. tuberculosis H37Rv (R/I/S),"[1]; Example compound 0.5 μM, ethionamide 0 μg/ml",R
same,growth inhibition of M. tuberculosis H37Rv (R/I/S),[1]; Example compound 1.5 μM + ethionamide 0.16 μg/ml,R
same,growth inhibition of M. tuberculosis H37Rv (R/I/S),[1]; Example compound 1.5 μM + ethionamide 0.31 μg/ml,I
same,growth inhibition of M. tuberculosis H37Rv (R/I/S),[1]; Example compound 1.5 μM + ethionamide 0.625 μg/ml,I
same,growth inhibition of M. tuberculosis H37Rv (R/I/S),[1]; Example compound 1.5 μM + ethionamide 1.25 μg/ml,S
same,growth inhibition of M. tuberculosis H37Rv (R/I/S),[1]; Example compound 1.5 μM + ethionamide 2.5 μg/ml,S
same,growth inhibition of M. tuberculosis H37Rv (R/I/S),[1]; Example compound 1.5 μM + ethionamide 5 μg/ml,S
same,growth inhibition of M. tuberculosis H37Rv (R/I/S),"[1]; Example compound 1.5 μM, ethionamide 0 μg/ml",R
same,growth inhibition of M. tuberculosis H37Rv (R/I/S),[1]; Example compound 4.5 μM + ethionamide 0.16 μg/ml,R
same,growth inhibition of M. tuberculosis H37Rv (R/I/S),[1]; Example compound 4.5 μM + ethionamide 0.31 μg/ml,I
same,growth inhibition of M. tuberculosis H37Rv (R/I/S),[1]; Example compound 4.5 μM + ethionamide 0.625 μg/ml,S
same,growth inhibition of M. tuberculosis H37Rv (R/I/S),[1]; Example compound 4.5 μM + ethionamide 1.25 μg/ml,S
same,growth inhibition of M. tuberculosis H37Rv (R/I/S),[1]; Example compound 4.5 μM + ethionamide 2.5 μg/ml,S
same,growth inhibition of M. tuberculosis H37Rv (R/I/S),[1]; Example compound 4.5 μM + ethionamide 5 μg/ml,S
same,growth inhibition of M. tuberculosis H37Rv (R/I/S),"[1]; Example compound 4.5 μM, ethionamide 0 μg/ml",R
same,growth inhibition of M. tuberculosis H37Rv (R/I/S),[1]; Example compound 13.5 μM + ethionamide 0.16 μg/ml,R
same,growth inhibition of M. tuberculosis H37Rv (R/I/S),[1]; Example compound 13.5 μM + ethionamide 0.31 μg/ml,I
same,growth inhibition of M. tuberculosis H37Rv (R/I/S),[1]; Example compound 13.5 μM + ethionamide 0.625 μg/ml,S
same,growth inhibition of M. tuberculosis H37Rv (R/I/S),[1]; Example compound 13.5 μM + ethionamide 1.25 μg/ml,S
same,growth inhibition of M. tuberculosis H37Rv (R/I/S),[1]; Example compound 13.5 μM + ethionamide 2.5 μg/ml,S
same,growth inhibition of M. tuberculosis H37Rv (R/I/S),[1]; Example compound 13.5 μM + ethionamide 5 μg/ml,S
same,growth inhibition of M. tuberculosis H37Rv (R/I/S),"[1]; Example compound 13.5 μM, ethionamide 0 μg/ml",R
same,growth inhibition of M. tuberculosis H37Rv (R/I/S),[1]; Example compound 40.5 μM + ethionamide 0.16 μg/ml,R
same,growth inhibition of M. tuberculosis H37Rv (R/I/S),[1]; Example compound 40.5 μM + ethionamide 0.31 μg/ml,I
same,growth inhibition of M. tuberculosis H37Rv (R/I/S),[1]; Example compound 40.5 μM + ethionamide 0.625 μg/ml,S
same,growth inhibition of M. tuberculosis H37Rv (R/I/S),[1]; Example compound 40.5 μM + ethionamide 1.25 μg/ml,S
same,growth inhibition of M. tuberculosis H37Rv (R/I/S),[1]; Example compound 40.5 μM + ethionamide 2.5 μg/ml,S
same,growth inhibition of M. tuberculosis H37Rv (R/I/S),[1]; Example compound 40.5 μM + ethionamide 5 μg/ml,S
same,growth inhibition of M. tuberculosis H37Rv (R/I/S),"[1]; Example compound 40.5 μM, ethionamide 0 μg/ml",R
same,growth inhibitory effect of compound alone on M. tuberculosis H37Rv,"[1]; compound alone, without ethionamide",do not show any growth inhibitory effect
same,growth of M. tuberculosis H37Rv in the presence of sub-inhibitory ethionamide concentrations,"[1]; ethionamide 0.16 and 5 μg/ml, 0.5 to 40.5 μMol compound",dose-dependently inhibited
